From US20230226198A1, “Artemisinin Derivatives” (DA ZEN THERANOSTICS, INC., priority 2019, published 2023) come the findings set out here.

pIC50: −log10 of the molar value.

Common to all, as to assay type: cell-based
One test has as its system 22Rv1 cells. The test can be described thus: MTT cell viability / IC50 assay, 22Rv1. The conditions noted are these: Homo sapiens, 22Rv1, 48 h. The protocol: (§1) Cell culture: In the following examples, unless otherwise specified, all cell lines are purchased from American Type Culture Collection and cultured in American Type Culture Collection (ATCC)-recommended media, with fetal bovine serum (FBS) to a final concentration of 10% and 1× penicillin/streptomycin at 37° C. with 5% CO2 in a cell culture incubator, unless otherwise specified. Unless otherwise specified, culture is 2D. Where culture is 3D, low attachment plates are used, with the same media. C4-2B (ATCC® CRL-3315™, human prostate cancer cells of epithelial morphology) parental cell line and drug-resistant cells derived therefrom) are cultured in RPMI-1640 with 10% FBS. MDVR cells (an Enzalutamide-resistant variety of C4-2B prostate cancer cells formed as described below) are cultured as indicated for the parental C4-2B cells. Caki-1 cells (human clear cell renal cell carcinoma cells) are cultured in ATCC-formulated McCoy's 5a Medium Modified (ATCC Catalog No. 30-2007) with 10% FBS. […]
(§2) Each of the cell lines is treated either with a THAD (e.g. DZ-DHA-ether, MI-148-bis-DHA), or for comparison, with the DHA mono-ester “DZ-DHA”; alternatively/additionally, DZ1 and/or unconjugated DHA may serve as comparants. […] The absorbance density of the supernatant is read on a 96-well microplate reader at wavelength 595 nm. […]

The test system of the next test is DU145 cells. The test can be described thus: MTT cell viability / IC50 assay, DU145. The conditions noted are these: Homo sapiens, DU-145; DU145, 48 h. The protocol: as §1, §2
Another test concerns C4-2B cells. The test can be described thus: MTT cell viability / IC50 assay, C4-2B. The conditions noted are these: Homo sapiens, 48 h. The procedure: as §1, §2
Test [1] deals with Abi-R cells (Abiraterone acetate resistant C4-2B cells). The test can be described thus: MTT cell viability / IC50 assay, Abi-R. The settings on record: Homo sapiens, 48 h. The protocol:
as §1, §2

The next test concerns H358 cells. The test can be described thus: MTT cell viability / IC50 assay, H358. The settings on record: Homo sapiens, NCI-H358, 48 h. The protocol:
as §1, §2

In general, pIC50 refers to the IC50 on a negative log10 scale, so that one unit is a factor of ten. Low values mean a high IC50, high ones a low IC50. For the compound `C[C@@H]1CC[C@H]2[C@@H](C)C(OC(=O)CCCCCN3/C(=C/C=C4\CCCC(/C=C/C5=[N+](CCCCS(=O)(=O)[O-])c6ccccc6C5(C)C)=C4Cl)C(C)(C)c4ccccc43)O[C@@H]3OC4(C)CC[C@@H]1[C@]32OO4` (stereo in doubt) [DZ3a], the pIC50 in the test with 22Rv1 cells was 6.05; in the test with DU145 cells, 5.09; in the test on C4-2B cells, 5.30; in test [1], 4.77; in the test on H358 cells it was 5.59.
Turning to `C[C@H]1[C@@H](O)O[C@@H]2O[C@@]3(C)CC[C@H]4[C@H](C)CC[C@@H]1[C@@]24OO3` [DHA, dihydroartemisinin], the pIC50 in the test with 22Rv1 cells is 5.03; in the test on DU145 cells it was 3.53; with C4-2B cells, 3.73; in test [1], 3.17; in the test with H358 cells, 5.14.
